Columns and labels:
spleen cells of mice [1] = assay: Antigenic peptide-specific IFN-γ production (ELISA) by OVA peptide-stimulated spleen cells of immunised mice (Examples 3 and 6); assay type: in vivo, mouse; details: Example 3, FIG. 4; C57BL/6 mice, intradermal once; spleen cells one week after administration, stimulated with OVA peptide 10 μg/mL, ELISA after 24 hours
Description: (1) One of the following was intradermally administered once to mice (C57BL/6 mouse, male, 7 weeks old): (1) antigenic peptide (OVA peptide, 5 μg) having an ovalbumin (OVA)-derived amino acid sequence (SEQ ID No. 1), (2) […] (5 μg) and CpG DNA (base sequence: […] (SEQ ID No. 2), 30 μg), (3) OVA peptide-dA40(S)/SPG complex (see Example 1, 5 μg), (4) OVA peptide-dA40(S)/SPG complex (prepared as in Example 1, 5 μg) and CpG DNA (30 μg), and (5) OVA peptide-dA40(S)/SPG complex (5 μg) and incomplete Freund's adjuvant (IFA). An investigation was performed to see whether antigen-specific interferon-γ (IFN-γ) was induced by, one week after administration, harvesting spleen cells from the mice, placing the cells in 96 wells (1.0×10^6 cells/well), and then stimulating the cells using OVA peptide (10 μg/mL).
Then 24 hours after stimulating the spleen cells by OVA peptide, enzyme-linked immunosorbent assay (ELISA) was used to quantitatively measure IFN-γ in the culture medium. […]
Then 24 hours after stimulating the spleen cells by OVA peptide, enzyme-linked immunosorbent assay (ELISA) was used to quantitatively measure IFN-γ in the culture medium.

spleen cells of mice [2] = assay: Fraction of OVA peptide-specific CD8-positive (cytolytic) T cells in spleen cells of immunised mice, flow cytometer (Examples 4 and 7); assay type: in vivo, mouse; details: Example 4, FIG. 5; spleen cells of Example 3 mice stimulated with OVA peptide-dA40(S)/SPG complex, cultured 6 days
Description: Mouse spleen cells were harvested from mice to which had been intradermally administered in Example 3 the (1) OVA peptide, (2) OVA peptide and CpG DNA, (3) OVA peptide-dA40(S)/SPG complex, or (4) OVA peptide-dA40(S)/SPG complex and CpG DNA. The harvested cells were stimulated using OVA peptide-dA40(S)/SPG complex and were cultured for 6 days. Then after antibody staining, a flow cytometer was used to evaluate the fraction of T cells that had cytotoxic specificity (CD8 positive) for OVA peptide.
The fraction of OVA peptide-specific CD8-positive T cells was low for the case (peptide) in which OVA peptide alone was administered, the case (peptide+CpG) in which OVA peptide and CpG DNA were simultaneously administered, and the case (peptide/SPG) in which OVA peptide-dA40(S)/SPG complex alone was administered.
The (1) OVA peptide, (2) OVA peptide and CpG DNA, (3) OVA peptide and CpG DNA-dA40(S)/SPG complex, or (4) OVA peptide-dA40(S)/CpG DNA-dA40(S)/SPG ternary complex prepared in Example 5 of Example 6 was intradermally administered, mouse spleen cells were harvested and stimulated using OVA peptide-dA40(S)/SPG complex, and the stimulated cells were cultured for 6 days. Then after antibody staining, a flow cytometer was used to evaluate the fraction of T cells that had cytotoxic specificity (CD8 positive) for OVA peptide.

Sequence: SIINFEKL (SEQ ID No. 1) (listed as Homo sapiens) [OVA peptide]
- OVA peptide-specific interferon (IFN-γ) reaction (spleen cells of mice [1]): No OVA peptide-specific interferon reaction was observed
- fraction of OVA peptide-specific CD8-positive T cells among the spleen cells (spleen cells of mice [2]): low

— patent US10195270B2, “Peptide/β-1,3-glucan complex and production method thereof and pharmaceutical composition containing peptide/β-1,3-glucan complex” (Japan Science and Technology Agency, priority 2014, dated 2019)
